Where two headings read alike, the source gives them in different places.
Columns and labels:
[1] = biological target: Human α2δ-1 subunit of Cav2.2 calcium channel (Homo sapiens, UniProt P54289); assay: Human α2δ-1 subunit of Cav2.2 calcium channel assay ([3H]-Gabapentin); assay type: binding
Description: Human α2δ-1 Subunit of Cav2.2 Calcium Channel Assay
Human α2δ-1 enriched membranes (2.5 μg) were incubated with 15 nM of radiolabeled [3H]-Gabapentin in assay buffer containing Hepes-KOH 10 mM, pH 7.4. NSB (non specific binding) was measured by adding 10 μM pregabalin. After 60 min incubation at 27° C., binding reaction was terminated by filtering through Multiscreen GF/C (Millipore) presoaked in 0.5% polyethyleneimine in Vacuum Manifold Station, followed by 3 washes with ice-cold filtration buffer containing 50 mM Tris-HCl, pH 7.4. Filter plates were dried at 60° C. for 1 hour and 30 μl of scintillation cocktail were added to each well before radioactivity reading. Readings were performed in a Trilux 1450 Microbeta radioactive counter (Perkin Elmer), i.e. Human α2δ-1 enriched membranes (2.5 μg) were incubated with 15 nM of radiolabeled [3H]-Gabapentin in assay buffer containing Hepes-KOH 10 mM, pH 7.4. NSB (non specific binding) was measured by adding 10 μM pregabalin. The binding of the test compound was measured at five different concentrations. After 60 min incubation at 27° C., binding reaction was terminated by filtering through Multiscreen GF/C (Millipore) presoaked in 0.5% polyethyleneimine in Vacuum Manifold Station, followed by 3 washes with ice-cold filtration buffer containing 50 mM Tris-HCl, pH 7.4. Filter plates were dried at 60° C. for 1 hour and 30 μl of scintillation cocktail were added to each well before radioactivity reading. Readings were performed in a Trilux 1450 Microbeta radioactive counter (Perkin Elmer).

human μ-opioid receptor = biological target: T1, human μ-opioid receptor (Homo sapiens, UniProt P35372); assay: Human μ-opioid receptor radioligand assay ([3H]-DAMGO); assay type: binding
T1 construct: expressed in transfected cells; host or cells: CHO-K1
Description: Human μ-Opioid Receptor Radioligand Assay
To investigate binding properties of test compounds to human μ-opioid receptor, transfected CHO-K1 cell membranes and [^3H]-DAMGO (Perkin Elmer, ES-542-C), as the radioligand, were used. The assay was carried out with 20 μg of membrane suspension, 1 nM of [^3H]-DAMGO in either absence or presence of either buffer or 10 μM Naloxone for total and non-specific binding, respectively. Binding buffer contained Tris-HCl 50 mM, MgCl2 5 mM at pH 7.4. Plates were incubated at 27° C. for 60 minutes. After the incubation period, the reaction mix was then transferred to MultiScreen HTS, FC plates (Millipore), filtered and plates were washed 3 times with ice-cold 10 mM Tris-HCL (pH 7.4). Filters were dried and counted at approximately 40% efficiency in a MicroBeta scintillation counter (Perkin-Elmer) using EcoScint liquid scintillation cocktail, preferably, transfected CHO-K1 cell membranes (20 μg) were incubated with 1 nM of [^3H]-DAMGO in assay buffer containing Tris-HCl 50 mM, MgCl2 5 mM at pH 7.4. NBS (non-specific binding) was measured by adding 10 μM Naloxone. The binding of the test compound was measured at five different concentrations. Plates were incubated at 27° C. for 60 minutes. After the incubation period, the reaction mix was then transferred to MultiScreen HTS, FC plates (Millipore), filtered and plates were washed 3 times with ice-cold 10 mM Tris-HCL (pH 7.4). Filters were dried and counted at approximately 40% efficiency in a MicroBeta scintillation counter (Perkin-Elmer) using EcoScint liquid scintillation cocktail.

[2] = human α2δ-1 enriched membranes, 15 nM [3H]-Gabapentin, read-out: Binding α2δ-1 (Ki)
[3] = transfected CHO-K1 cell membranes, 1 nM [3H]-DAMGO, read-out: Binding μ (Ki)

Chain of Human α2δ-1 subunit of Cav2.2 calcium channel (P54289 25-1103): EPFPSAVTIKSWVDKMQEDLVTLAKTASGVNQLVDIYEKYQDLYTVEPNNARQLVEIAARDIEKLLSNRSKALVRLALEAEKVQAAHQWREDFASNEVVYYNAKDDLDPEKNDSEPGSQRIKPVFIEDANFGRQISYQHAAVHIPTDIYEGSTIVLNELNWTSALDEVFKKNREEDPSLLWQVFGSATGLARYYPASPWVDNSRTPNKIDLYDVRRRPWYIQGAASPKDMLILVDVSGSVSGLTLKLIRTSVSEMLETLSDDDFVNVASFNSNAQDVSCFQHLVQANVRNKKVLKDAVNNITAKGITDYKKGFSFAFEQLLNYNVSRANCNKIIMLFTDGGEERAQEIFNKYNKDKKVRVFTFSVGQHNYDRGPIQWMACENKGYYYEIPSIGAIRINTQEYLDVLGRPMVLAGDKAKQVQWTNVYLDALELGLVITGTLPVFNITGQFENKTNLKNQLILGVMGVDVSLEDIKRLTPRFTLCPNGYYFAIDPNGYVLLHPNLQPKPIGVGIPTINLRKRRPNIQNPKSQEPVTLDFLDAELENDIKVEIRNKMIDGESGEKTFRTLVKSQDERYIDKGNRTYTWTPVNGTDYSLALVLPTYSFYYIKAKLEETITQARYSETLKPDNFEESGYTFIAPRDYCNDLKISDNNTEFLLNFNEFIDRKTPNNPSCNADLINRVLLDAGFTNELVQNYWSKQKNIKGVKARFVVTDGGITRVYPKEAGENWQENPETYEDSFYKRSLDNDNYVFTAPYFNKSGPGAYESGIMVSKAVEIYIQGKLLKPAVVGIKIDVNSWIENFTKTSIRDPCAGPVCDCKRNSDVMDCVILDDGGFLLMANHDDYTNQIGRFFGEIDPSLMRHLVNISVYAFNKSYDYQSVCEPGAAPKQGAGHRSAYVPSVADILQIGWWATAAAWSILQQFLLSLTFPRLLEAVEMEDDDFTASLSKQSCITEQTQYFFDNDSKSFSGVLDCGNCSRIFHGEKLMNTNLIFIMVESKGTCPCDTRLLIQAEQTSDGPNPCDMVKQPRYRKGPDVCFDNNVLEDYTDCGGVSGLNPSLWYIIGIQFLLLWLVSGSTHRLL
T1 sequence (P35372 whole entry): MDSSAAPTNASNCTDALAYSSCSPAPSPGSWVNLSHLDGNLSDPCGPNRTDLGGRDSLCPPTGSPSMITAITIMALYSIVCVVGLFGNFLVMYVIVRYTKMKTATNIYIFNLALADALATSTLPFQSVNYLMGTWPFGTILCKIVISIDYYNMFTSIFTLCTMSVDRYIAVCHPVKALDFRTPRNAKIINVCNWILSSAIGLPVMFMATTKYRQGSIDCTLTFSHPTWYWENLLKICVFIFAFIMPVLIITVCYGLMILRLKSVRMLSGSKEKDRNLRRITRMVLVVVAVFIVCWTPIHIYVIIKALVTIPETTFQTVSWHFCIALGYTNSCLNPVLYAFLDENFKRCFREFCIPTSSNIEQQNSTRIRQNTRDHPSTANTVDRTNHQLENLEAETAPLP

| Ki [1, 2] [nM] | Ki (human μ-opioid receptor; [3]) [nM] | SMILES | Ki [1] [nM] | Ki (human μ-opioid receptor) [nM] |
| --- | --- | --- | --- | --- |
| – | – | CCNCCC(Oc1ccccc1-n1nc2c(N(C)C)nnc(C)c2c1C)c1ccccc1 (stereo not shown) [Example 1, 2-(2-(3-(Ethylamino)-1-phenylpropoxy)phenyl)-N,N,3,4-tetramethyl-2H-pyrazolo[3,4-d]pyridazin-7-amine] | 500 to 5000 | 100 to 500 |
| > 5000 | > 500 | Cc1nnc(N(C)C)c2nn(-c3ccccc3OCCN3CCCC3)c(C)c12 [Example 2, N,N,3,4-tetramethyl-2-(2-(2-(pyrrolidin-1-yl)ethoxy)phenyl)-2H-pyrazolo[3,4-d]pyridazin-7-amine] | – | – |
| > 5000 | > 500 | Cc1nnc(N(C)C)c2nn(-c3ccccc3OCC3CCNCC3)c(C)c12 [Example 3, N,N,3,4-tetramethyl-2-(2-(piperidin-4-ylmethoxy)phenyl)-2H-pyrazolo[3,4-d]pyridazin-7-amine] | – | – |
| 500 to 5000 | > 500 | CNCCCOc1ccccc1-n1nc2c(N(C)C)nnc(C)c2c1C [Example 4, N,N,3,4-tetramethyl-2-(2-(3-(methylamino)propoxy)phenyl)-2H-pyrazolo[3,4-d]pyridazin-7-amine] | – | – |
| 500 to 5000 | > 500 | Cc1nnc(N(C)C)c2nn(-c3ccccc3OCC3CCCNC3)c(C)c12 (stereo not shown) [Example 5, N,N,3,4-tetramethyl-2-(2-(piperidin-3-ylmethoxy)phenyl)-2H-pyrazolo[3,4-d]pyridazin-7-amine] | – | – |
| – | – | CNCCC(Oc1ccccc1-n1nc2c(N(C)C)nnc(C)c2c1C)c1ccccc1 (stereo not shown) [Example 6, N,N,3,4-tetramethyl-2-(2-(3-(methylamino)-1-phenylpropoxy)phenyl)-2H-pyrazolo[3,4-d]pyridazin-7-amine] | 500 to 5000 | 100 to 500 |
| 500 to 5000 | > 500 | CNCCC(Oc1ccccc1-n1nc2c(NCc3ccccc3)nnc(C)c2c1C)c1ccccc1 (stereo not shown) [Example 7, N-benzyl-3,4-dimethyl-2-(2-(3-(methylamino)-1-phenylpropoxy)phenyl)-2H-pyrazolo[3,4-d]pyridazin-7-amine] | – | – |
| 500 to 5000 | > 500 | Cc1nnc(N(C)C)c2nn(-c3ccccc3OC3CCN(Cc4ccccc4)C3)c(C)c12 (stereo not shown) [Example 8, 2-(2-((1-benzylpyrrolidin-3-yl)oxy)phenyl)-N,N,3,4-tetramethyl-2H-pyrazolo[3,4-d]pyridazin-7-amine] | – | – |
| – | – | CNCCC(Oc1ccccc1-n1nc2c(Nc3ccccc3)nnc(C)c2c1C)c1ccccc1 (stereo not shown) [Example 9, 3,4-dimethyl-2-(2-(3-(methylamino)-1-phenylpropoxy)phenyl)-N-phenyl-2H-pyrazolo[3,4-d]pyridazin-7-amine] | > 5000 | 100 to 500 |
| 500 to 5000 | > 500 | CNCCC(C)Oc1ccccc1-n1nc2c(N(C)C)nnc(C)c2c1C (stereo not shown) [Example 10, N,N,3,4-tetramethyl-2-(2-((4-(methylamino)butan-2-yl)oxy)phenyl)-2H-pyrazolo[3,4-d]pyridazin-7-amine] | – | – |
| 500 to 5000 | > 500 | Cc1nnc(N(C)C)c2nn(-c3ccccc3OC(c3ccccc3)C3CCNCC3)c(C)c12 (stereo not shown) [Example 11, N,N,3,4-tetramethyl-2-(2-(phenyl(piperidin-4-yl)methoxy)phenyl)-2H-pyrazolo[3,4-d]pyridazin-7-amine] | – | – |
| 500 to 5000 | > 500 | Cc1nnc(N(C)C)c2nn(-c3ccccc3OC(C)CCNCc3ccccc3)c(C)c12 (stereo not shown) [Example 12, 2-(2-((4-(benzylamino)butan-2-yl)oxy)phenyl)-N,N,3,4-tetramethyl-2H-pyrazolo[3,4-d]pyridazin-7-amine] | – | – |
| > 5000 | > 500 | Cc1nnc(N(C)C)c2nn(-c3ccccc3OC3CCNCC3)c(C)c12 [Example 13, N,N,3,4-tetramethyl-2-(2-(piperidin-4-yloxy)phenyl)-2H-pyrazolo[3,4-d]pyridazin-7-amine] | – | – |
| 500 to 5000 | > 500 | CNCCC(Oc1ccccc1-n1nc2c(N(C)C)nnc(C)c2c1C)c1cccc(C#N)c1 (stereo not shown) [Example 14, 3-(1-(2-(7-(dimethylamino)-3,4-dimethyl-2H-pyrazolo[3,4-d]pyridazin-2-yl)phenoxy)-3-(methylamino)propyl)benzonitrile] | – | – |
| 500 to 5000 | > 500 | CNCCC(Oc1ccccc1-n1nc2c(N(C)C)nnc(C)c2c1C)c1ccc(C#N)cc1 (stereo not shown) [Example 15, 4-(1-(2-(7-(dimethylamino)-3,4-dimethyl-2H-pyrazolo[3,4-d]pyridazin-2-yl)phenoxy)-3-(methylamino)propyl)benzonitrile] | – | – |
| > 5000 | > 500 | CNCCC(Oc1ccccc1-n1nc2c(N(C)C)nnc(C)c2c1C)C1CCOCC1 (stereo not shown) [Example 16, N,N,3,4-tetramethyl-2-(2-(3-(methylamino)-1-(tetrahydro-2H-pyran-4-yl)propoxy)phenyl)-2H-pyrazolo[3,4-d]pyridazin-7-amine] | – | – |
| 500 to 5000 | > 500 | Cc1nnc(N(C)C)c2nn(-c3ccccc3OCC(N)c3ccccc3)c(C)c12 (stereo not shown) [Example 17, 2-(2-(2-amino-2-phenylethoxy)phenyl)-N,N,3,4-tetramethyl-2H-pyrazolo[3,4-d]pyridazin-7-amine] | – | – |
| 500 to 5000 | > 500 | CNCCC(Oc1ccccc1-n1nc2c(N(C)C)nnc(C)c2c1C)c1ccccn1 (stereo not shown) [Example 18, N,N,3,4-tetramethyl-2-(2-(3-(methylamino)-1-(pyridin-2-yl)propoxy)phenyl)-2H-pyrazolo[3,4-d]pyridazin-7-amine] | – | – |
| 500 to 5000 | > 500 | CNCCC(Oc1ccccc1-n1nc2c(N(C)C)nnc(C)c2c1C)c1ccncc1 (stereo not shown) [Example 19, N,N,3,4-tetramethyl-2-(2-(3-(methylamino)-1-(pyridin-4-yl)propoxy)phenyl)-2H-pyrazolo[3,4-d]pyridazin-7-amine] | – | – |
| – | – | Cc1nnc(N(C)C)c2nn(-c3ccccc3OC(CCNCC3CC3)c3ccccc3)c(C)c12 (stereo not shown) [Example 20, 2-(2-(3-((cyclopropylmethyl)amino)-1-phenylpropoxy)phenyl)-N,N,3,4-tetramethyl-2H-pyrazolo[3,4-d]pyridazin-7-amine] | 500 to 5000 | 100 to 500 |
| 500 to 5000 | > 500 | CNCCC(Oc1ccccc1-n1nc2c(N(C)C)nnc(C)c2c1C)c1cccnc1 (stereo not shown) [Example 21, N,N,3,4-tetramethyl-2-(2-(3-(methylamino)-1-(pyridin-3-yl)propoxy)phenyl)-2H-pyrazolo[3,4-d]pyridazin-7-amine] | – | – |
| 500 to 5000 | > 500 | Cc1nnc(N(C)C)c2nn(-c3ccccc3OCCC(N)c3ccccc3)c(C)c12 (stereo not shown) [Example 22, 2-(2-(3-amino-3-phenylpropoxy)phenyl)-N,N,3,4-tetramethyl-2H-pyrazolo[3,4-d]pyridazin-7-amine] | – | – |
| 500 to 5000 | > 500 | CNCCC(Oc1ccccc1-n1nc2c(N3CCOCC3)nnc(C)c2c1C)c1ccccc1 (stereo not shown) [Example 23, 3-(2-(3,4-dimethyl-7-morpholino-2H-pyrazolo[3,4-d]pyridazin-2-yl)phenoxy)-N-methyl-3-phenylpropan-1-amine] | – | – |
| – | – | CCCNCCC(Oc1ccccc1-n1nc2c(N(C)C)nnc(C)c2c1C)c1ccccc1 (stereo not shown) [Example 24, N,N,3,4-tetramethyl-2-(2-(1-phenyl-3-(propylamino)propoxy)phenyl)-2H-pyrazolo[3,4-d]pyridazin-7-amine] | 500 to 5000 | 100 to 500 |
| 500 to 5000 | > 500 | CNCCC(Oc1cc(Br)ccc1-n1nc2c(N(C)C)nnc(C)c2c1C)c1ccccc1 (stereo not shown) [Example 25, 2-(4-bromo-2-(3-(methylamino)-1-phenylpropoxy)phenyl)-N,N,3,4-tetramethyl-2H-pyrazolo[3,4-d]pyridazin-7-amine] | – | – |
| 500 to 5000 | > 500 | COCCNCCC(Oc1ccccc1-n1nc2c(N(C)C)nnc(C)c2c1C)c1ccccc1 (stereo not shown) [Example 26, 2-(2-(3-((2-methoxyethyl)amino)-1-phenylpropoxy)phenyl)-N,N,3,4-tetramethyl-2H-pyrazolo[3,4-d]pyridazin-7-amine] | – | – |

From patent US10562908B2, “Ortho substituted phenylpyrazolo- and phenylpyrrolo-pyridazine derivatives having multimodal activity against pain” (priority 2016, dated 2020)
